Source: article PMC8590616 (European Journal of Pharmacology, 2021)
“And” between values parts separate entries of the source, which are not always exact repeats. Equal entries are not always repeated. Where two headings read alike, the source gives them in different places.

Legend:
[1] = cited from earlier work
ICaL [2] = details: read-out: ICaL IC50; cat Purkinje fibers ref Sánchez-Chapula et al. (2001); cited from earlier work
hERG1 [3] = target: T1, hERG1 (Homo sapiens, UniProt Q12809); experiment: Manual patch-clamp, standard 2-step hERG protocol at PT; format: cell-based
T1 sequence (Q12809 whole entry): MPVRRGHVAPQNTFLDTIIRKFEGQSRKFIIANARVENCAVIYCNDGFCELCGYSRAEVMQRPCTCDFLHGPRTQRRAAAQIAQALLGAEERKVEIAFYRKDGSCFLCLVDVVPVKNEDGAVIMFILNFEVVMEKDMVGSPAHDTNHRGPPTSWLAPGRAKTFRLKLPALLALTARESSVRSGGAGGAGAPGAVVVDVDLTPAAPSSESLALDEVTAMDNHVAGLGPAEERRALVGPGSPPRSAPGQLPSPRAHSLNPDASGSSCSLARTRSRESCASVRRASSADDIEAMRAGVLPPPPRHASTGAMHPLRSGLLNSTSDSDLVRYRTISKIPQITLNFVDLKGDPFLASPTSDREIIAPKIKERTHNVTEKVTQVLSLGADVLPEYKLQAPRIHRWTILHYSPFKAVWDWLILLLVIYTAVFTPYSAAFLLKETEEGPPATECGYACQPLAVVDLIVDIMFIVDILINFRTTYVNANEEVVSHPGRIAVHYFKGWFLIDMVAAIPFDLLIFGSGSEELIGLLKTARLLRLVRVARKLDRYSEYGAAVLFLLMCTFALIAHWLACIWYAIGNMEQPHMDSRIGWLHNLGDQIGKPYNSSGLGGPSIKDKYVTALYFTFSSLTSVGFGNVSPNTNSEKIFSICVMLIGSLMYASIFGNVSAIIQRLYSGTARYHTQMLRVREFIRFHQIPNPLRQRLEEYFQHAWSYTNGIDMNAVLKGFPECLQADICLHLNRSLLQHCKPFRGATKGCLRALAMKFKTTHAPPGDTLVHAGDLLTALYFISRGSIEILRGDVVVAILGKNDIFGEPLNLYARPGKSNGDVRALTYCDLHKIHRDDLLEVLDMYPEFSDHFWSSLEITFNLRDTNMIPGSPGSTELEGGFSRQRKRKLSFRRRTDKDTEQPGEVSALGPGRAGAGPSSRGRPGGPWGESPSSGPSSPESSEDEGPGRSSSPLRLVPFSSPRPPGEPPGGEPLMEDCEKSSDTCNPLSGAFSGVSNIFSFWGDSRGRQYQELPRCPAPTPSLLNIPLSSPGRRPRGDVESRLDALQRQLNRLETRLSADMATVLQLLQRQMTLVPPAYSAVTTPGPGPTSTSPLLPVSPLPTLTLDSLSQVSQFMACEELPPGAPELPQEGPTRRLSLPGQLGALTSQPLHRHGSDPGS

IK1 = details: read-out: IK1 IC50; HEK293 ref Noujaim et al. (2011); cited from earlier work
hERG1 [4] = target: T1, hERG1; experiment: Manual whole-cell patch-clamp, standard 2-step hERG protocol at RT, HEK293T; details: for Hill coefficient nH, hERG inhibition: manual patch-clamp, RT
hKir2.1 = target: T2, hKir2.1 (Homo sapiens, UniProt P63252); details: HEK-293T, read-out: IK1 (hKir2.1) IC50
T2 sequence (P63252 1-427): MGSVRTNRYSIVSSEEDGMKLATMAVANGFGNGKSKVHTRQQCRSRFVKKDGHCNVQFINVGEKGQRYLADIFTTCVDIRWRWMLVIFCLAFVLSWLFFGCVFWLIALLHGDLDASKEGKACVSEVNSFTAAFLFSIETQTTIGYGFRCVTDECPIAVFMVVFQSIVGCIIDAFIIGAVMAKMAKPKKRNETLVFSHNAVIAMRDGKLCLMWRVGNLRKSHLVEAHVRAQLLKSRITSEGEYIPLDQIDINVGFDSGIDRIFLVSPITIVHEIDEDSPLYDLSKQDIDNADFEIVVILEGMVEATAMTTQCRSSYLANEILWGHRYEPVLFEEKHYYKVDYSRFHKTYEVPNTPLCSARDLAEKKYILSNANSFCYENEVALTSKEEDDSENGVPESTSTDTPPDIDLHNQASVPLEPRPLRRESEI

INa peak [5] = details: read-out: INa peak IC50; cat Purkinje fibers ref Sánchez-Chapula et al. (2001); cited from earlier work
hNav1.5 [6] = target: T3, hNav1.5 (Homo sapiens, UniProt Q14524); experiment: Peak INa in presence of ATX-II 20 nM at RT, HEK293 cells; details: for IC50: INa peak IC50, hNav1.5, ATX-II 20 nM, Hill fit
T3 sequence (Q14524 whole entry): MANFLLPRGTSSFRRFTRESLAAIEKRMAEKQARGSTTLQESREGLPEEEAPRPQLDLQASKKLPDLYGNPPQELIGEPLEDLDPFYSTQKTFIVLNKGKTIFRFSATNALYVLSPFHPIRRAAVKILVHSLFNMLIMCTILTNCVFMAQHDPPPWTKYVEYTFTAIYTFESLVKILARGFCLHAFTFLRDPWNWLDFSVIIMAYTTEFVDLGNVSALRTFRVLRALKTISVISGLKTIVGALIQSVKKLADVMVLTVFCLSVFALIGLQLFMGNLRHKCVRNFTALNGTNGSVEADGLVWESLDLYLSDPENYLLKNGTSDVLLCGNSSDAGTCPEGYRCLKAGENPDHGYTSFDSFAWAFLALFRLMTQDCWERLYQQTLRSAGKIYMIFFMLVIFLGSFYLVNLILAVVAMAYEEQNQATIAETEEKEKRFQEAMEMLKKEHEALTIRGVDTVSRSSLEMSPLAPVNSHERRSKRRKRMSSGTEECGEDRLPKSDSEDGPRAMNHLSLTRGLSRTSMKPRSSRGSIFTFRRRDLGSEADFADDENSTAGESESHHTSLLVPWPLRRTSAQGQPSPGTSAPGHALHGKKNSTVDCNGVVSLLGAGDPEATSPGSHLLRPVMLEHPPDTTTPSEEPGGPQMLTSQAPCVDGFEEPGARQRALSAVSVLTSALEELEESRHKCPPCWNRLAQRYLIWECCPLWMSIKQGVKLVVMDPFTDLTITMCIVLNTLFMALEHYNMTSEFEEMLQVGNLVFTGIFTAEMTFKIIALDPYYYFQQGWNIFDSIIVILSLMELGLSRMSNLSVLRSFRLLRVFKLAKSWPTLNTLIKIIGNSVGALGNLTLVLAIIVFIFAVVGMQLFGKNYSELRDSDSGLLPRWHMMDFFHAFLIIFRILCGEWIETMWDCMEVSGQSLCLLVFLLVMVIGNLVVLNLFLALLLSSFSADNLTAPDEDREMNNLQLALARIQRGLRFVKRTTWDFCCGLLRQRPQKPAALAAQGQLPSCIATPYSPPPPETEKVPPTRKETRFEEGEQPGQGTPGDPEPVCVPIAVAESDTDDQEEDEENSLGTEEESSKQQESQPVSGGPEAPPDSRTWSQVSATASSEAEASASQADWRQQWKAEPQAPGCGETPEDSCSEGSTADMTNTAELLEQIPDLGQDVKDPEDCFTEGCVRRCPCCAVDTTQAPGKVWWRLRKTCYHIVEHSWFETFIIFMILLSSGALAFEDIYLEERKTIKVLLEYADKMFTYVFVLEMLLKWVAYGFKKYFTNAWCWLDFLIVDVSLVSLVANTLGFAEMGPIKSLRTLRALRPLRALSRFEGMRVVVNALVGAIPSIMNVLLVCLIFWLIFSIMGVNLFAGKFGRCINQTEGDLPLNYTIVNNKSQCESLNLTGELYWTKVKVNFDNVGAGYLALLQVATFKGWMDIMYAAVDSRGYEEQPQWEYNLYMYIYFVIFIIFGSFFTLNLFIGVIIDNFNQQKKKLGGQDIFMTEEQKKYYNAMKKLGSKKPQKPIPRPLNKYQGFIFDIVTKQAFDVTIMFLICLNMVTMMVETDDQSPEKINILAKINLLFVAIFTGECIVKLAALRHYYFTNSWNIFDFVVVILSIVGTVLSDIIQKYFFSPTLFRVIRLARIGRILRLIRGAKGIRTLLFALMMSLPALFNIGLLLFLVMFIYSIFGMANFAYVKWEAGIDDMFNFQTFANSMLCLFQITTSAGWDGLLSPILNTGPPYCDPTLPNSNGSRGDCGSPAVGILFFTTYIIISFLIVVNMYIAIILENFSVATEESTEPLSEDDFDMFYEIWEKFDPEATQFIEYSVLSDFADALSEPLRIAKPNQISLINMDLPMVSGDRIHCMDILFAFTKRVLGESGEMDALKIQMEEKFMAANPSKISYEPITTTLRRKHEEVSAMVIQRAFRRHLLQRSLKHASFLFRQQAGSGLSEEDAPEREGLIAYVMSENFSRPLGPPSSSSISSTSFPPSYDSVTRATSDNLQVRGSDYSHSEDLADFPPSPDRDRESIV

ICaL [7] = details: read-out: ICaL IC50; CHO, RT ref Delaunois et al. (2021); cited from earlier work
Ito = details: read-out: Ito IC50; rat ventricular myocytes ref Wagner et al. (2010); cited from earlier work
ICaL [8] = details: read-out: ICaL IC50; HEK293 ref Jordaan et al. (2021); cited from earlier work
[9] = system: peak L-type Ca2+ current (ICaL) in Pluricyte cardiomyocytes; experiment: hiPSC-CM β-escin-perforated voltage-clamp: peak ICaL; format: cell-based; details: Homo sapiens, Cardiomyocyte; for IC50: read-out: ICaL IC50
INa peak [10] = details: human atrial myocytes ref Borsini et al. (2012), cited from earlier work
[11] = system: steady funny current (If) in Pluricyte cardiomyocytes; experiment: hiPSC-CM β-escin-perforated voltage-clamp: steady funny current; format: cell-based; details: Homo sapiens, Cardiomyocyte, read-out: If IC50
hERG1 [12] = target: T1, hERG1; experiment: Automated patch-clamp; details: for Hill coefficient nH, hERG inhibition: automated patch-clamp, RT
INa peak [13] = details: read-out: INa peak IC50; HEK293 ref Jordaan et al. (2021); cited from earlier work
IKr [14] = details: read-out: IKr IC50; Xenopus laevis oocytes ref Sánchez-Chapula et al. (2002); cited from earlier work
hNav1.5 [15] = target: T3, hNav1.5; experiment: Peak INa at PT, manual patch-clamp, HEK293 cells; format: cell-based; details: for INa peak Hill coefficient nH: PT
If = details: read-out: If IC50, cited from earlier work
IKr [16] = details: read-out: IKr IC50, cited from earlier work
INa peak [17] = details: read-out: INa peak IC50; CHO, PT ref Delaunois et al. (2021); cited from earlier work
hNav1.5 [18] = target: T3, hNav1.5; experiment: Late INa in presence of ATX-II 20 nM at RT, HEK293 cells; details: for IC50: INa late IC50, hNav1.5, ATX-II 20 nM, end of tail current at 0 mV
IKr [19] = details: read-out: IKr IC50, cited from earlier work; remark: listed apart in the source
hERG (peak IKr) = experiment: hiPSC-CM β-escin-perforated voltage-clamp: peak IKr; format: cell-based, human; details: human
[20] = system: peak hERG current (IKr) in Pluricyte cardiomyocytes; experiment: as above; format: cell-based, human; details: 5 μM; hiPSC-CM; individual experiments and average ± SD
IKs = details: human atrial myocytes ref Borsini et al. (2012), cited from earlier work
[21] = system: peak voltage-dependent Na+ current (INa) in Pluricyte cardiomyocytes; experiment: hiPSC-CM β-escin-perforated voltage-clamp: peak INa; format: cell-based; details: Homo sapiens, Cardiomyocyte; for IC50: read-out: peak INa IC50 in hiPSC-CM
INa late = details: read-out: INa late IC50, CHO, cited from earlier work
hKv7.1+hMinK = hKv7.1+hMinK (Homo sapiens, UniProt P51787); experiment: IKs double-step voltage protocol, HEK293 cells; format: cell-based; details: for effect on plateau IKs level: highest concentration applied (100 μM)
Sequence of hKv7.1+hMinK (P51787 whole entry): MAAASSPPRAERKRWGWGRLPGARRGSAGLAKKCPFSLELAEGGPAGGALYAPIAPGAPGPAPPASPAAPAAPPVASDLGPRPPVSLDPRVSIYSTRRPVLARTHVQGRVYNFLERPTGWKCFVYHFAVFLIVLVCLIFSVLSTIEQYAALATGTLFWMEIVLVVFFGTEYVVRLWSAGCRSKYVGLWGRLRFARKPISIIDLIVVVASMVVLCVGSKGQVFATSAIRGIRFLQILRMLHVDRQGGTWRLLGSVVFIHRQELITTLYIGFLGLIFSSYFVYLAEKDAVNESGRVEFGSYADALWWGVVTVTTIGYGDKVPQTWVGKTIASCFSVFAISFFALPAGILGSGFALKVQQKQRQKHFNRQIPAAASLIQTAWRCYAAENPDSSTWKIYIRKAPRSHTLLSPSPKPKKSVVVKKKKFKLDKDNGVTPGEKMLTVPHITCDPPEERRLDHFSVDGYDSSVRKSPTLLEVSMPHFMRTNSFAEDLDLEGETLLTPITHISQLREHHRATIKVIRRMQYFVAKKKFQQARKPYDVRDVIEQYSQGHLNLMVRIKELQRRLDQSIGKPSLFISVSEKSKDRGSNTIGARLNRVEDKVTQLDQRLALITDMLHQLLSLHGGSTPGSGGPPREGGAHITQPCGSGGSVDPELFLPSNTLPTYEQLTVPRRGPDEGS

IKr [22] = details: cited from earlier work
ICaL [23] = details: cited from earlier work
[24] = standard 12-compounds panel ref Dutta et al., (2017)
[25] = read-out: peak ICaL, % of control values
[26] = HEK293, RT ref Delaunois et al. (2021)
[27] = CHO, PT ref Delaunois et al. (2021)
[28] = CHO, PT ref TeBay et al. (2021)
[29] = read-out: peak INa, % of control values
[30] = 3 μM, guinea pig SAN cells ref Capel et al. (2015)

Compound: Cc1cccc(C)c1OCC(C)N (stereo not shown) [Mexiletine]
- Cmax [1, 24]: 4130 nM

Compound: Cc1nccn1CC1CCc2c(c3ccccc3n2C)C1=O (stereo not shown) [Ondansetron]
- Cmax [1, 24]: 139 nM

Compound: CCN(CC)CCCC(C)Nc1ccnc2cc(Cl)ccc12 (stereo not shown) [chloroquine]
- IC50 (ICaL [2]): 21.2 µM
- Hill coefficient nH, hERG inhibition (hERG1 [3]): 1.25
- IC50 (IK1): 1200 nM
- Hill coefficient nH, hERG inhibition (hERG1 [4]): 0.90
- potency estimated from few doses (hKir2.1): 5.86 µM
- IC50 (INa peak [5]): 12.2 µM
- INa peak Hill coefficient nH (hNav1.5 [6]): 0.98
- IC50 (hNav1.5 [6]): 159 µM
- IC50 (ICaL [7]): 17.9 µM
- IC50 (Ito): 4.6 mM
- IC50 (ICaL [8]): 3.05 µM
- IC50 [9]: 30.7 µM
- activity at 5 µM [9, 25]: 86 ± 9%
- INa peak % block (INa peak [10]; 30 μM): 42.6%
- IC50 (INa peak [10]; read-out: INa peak IC50): 40.4 µM
- IC50 [11]: > 162 µM
- Hill coefficient nH, hERG inhibition (hERG1 [12]): 1.36
- IC50 (INa peak [13]): 8.48 µM
- IC50 (IKr [14]): 8.4 µM
- IC50 (hNav1.5 [15]): 39.3 µM
- INa peak Hill coefficient nH (hNav1.5 [15]): 0.97
- IC50 (If; [26]): 228 µM
- Cmax ([1]; Table 2 ref Borsini et al. (2012)): 410 nM
- Cmax, maximal free plasma therapeutic concentration ([1]; usual doses ref Borsini et al., 2012): 0.41 µM
- IC50 (IKr [16]; HEK293, RT ref Borsini et al. (2012)): 960 nM
- IC50 (IKr [16]; HEK293, RT ref Traebert et al. (2004)): 2500 nM
- IC50 (INa peak [17]): 14 µM
- INa late Hill coefficient nH (hNav1.5 [18]): 0.85
- IC50 (hNav1.5 [18]): 30.4 µM
- IC50 (IKr [19]; CHO ref Jordaan et al. (2021)): 7.77 µM
- IC50 (IKr [19]; [27]): 1.03 µM
- IC50 (IKr [19]; [28]): 1.47 µM
- activity at 5 µM (hERG (peak IKr)): 37.2%
- potency estimated from few doses (hERG (peak IKr)): 2960 nM
- peak IKr % inhibition [20]: 62.78 ± 11.12%
- IKs % block (IKs; 10 μM): 8%
- IC50 (IKs; read-out: IKs IC50): 115 µM
- IC50 [21]: 45 µM
- inhibition at 5 µM ([21]; read-out: peak INa average inhibition): 10%
- activity at 5 µM [21, 29]: 90 ± 12%
- IC50 (INa late; PT ref Delaunois et al. (2021)): 11.6 µM
- IC50 (INa late; RT ref Delaunois et al. (2021)): 109 µM
- IC50 (hKv7.1+hMinK): > 100 µM
- effect on plateau IKs level (hKv7.1+hMinK): only slightly inhibited

Compound: CC(C)(C)c1ccc(C(O)CCCN2CCC(C(O)(c3ccccc3)c3ccccc3)CC2)cc1 (stereo not shown) [Terfenadine]
- Cmax [1, 24]: 4 nM

Compound: CN(C)CCCN1c2ccccc2Sc2ccc(Cl)cc21 [Chlorpromazine]
- Cmax [1, 24]: 38 nM

Compound: CCN(CCO)CCCC(C)Nc1ccnc2cc(Cl)ccc12 (stereo not shown) [hydroxychloroquine]
- IC50 (hERG1 [4]): 4.79 µM
- Hill coefficient nH, hERG inhibition (hERG1 [4]): 0.85
- potency estimated from few doses (hKir2.1): 29.3 µM
- INa peak Hill coefficient nH (hNav1.5 [6]): 0.81
- IC50 (hNav1.5 [6]): 96.2 µM
- IC50 (ICaL [7]): 66.3 µM
- IC50 (ICaL [8]): 7.64 µM
- IC50 [9]: 90 µM
- activity at 10 µM [9, 25]: 90 ± 12%
- IC50 [11]: > 990 µM
- IC50 (hERG1 [12]): 3.42 µM
- Hill coefficient nH, hERG inhibition (hERG1 [12]): 1.02
- IKr % block (IKr [22]; [30]): 35%
- IC50 (IKr [22]; read-out: IKr IC50, guinea pig SAN cells, PT ref Capel et al. (2015)): 5.6 µM
- IC50 (INa peak [13]): > 300 µM
- IC50 (hNav1.5 [15]): 42.4 µM
- INa peak Hill coefficient nH (hNav1.5 [15]): 1.02
- IC50 (If; HEK293, PT ref Delaunois et al. (2021)): > 300 µM
- IC50 (If; [26]): 372 µM
- Cmax ([1]; Table 2 ref Yao et al. (2020)): 495 nM
- Cmax, maximal free plasma therapeutic concentration ([1]; usual doses ref Yao et al., 2020): 0.495 μM and 215 ng/ml
- Cmax, maximal free plasma therapeutic concentration ([1]; usual doses ref Yao et al., 2020, listed as Hydroxychloroquine): 0.495 μM and 215 ng/ml
- IC50 (INa peak [17]): 17 µM
- INa late Hill coefficient nH (hNav1.5 [18]): 0.89
- IC50 (hNav1.5 [18]): 64.9 µM
- IC50 (IKr [19]; CHO ref Jordaan et al. (2021)): 9.7 µM
- IC50 (IKr [19]; [27]): 2.66 µM
- IC50 (IKr [19]; [28]): 3.78 µM
- IC50 (IKr [19]; CHO, RT ref Delaunois et al. (2021)): 6.97 µM
- IC50 [21]: 52.5 µM
- activity at 10 µM [21, 29]: 84 ± 16%
- IC50 (INa late; PT ref Delaunois et al. (2021)): 21.4 µM
- IC50 (INa late; RT ref Delaunois et al. (2021)): 92.9 µM
- ICaL % block (ICaL [23]; [30]): 12%
- IC50 (ICaL [23]; read-out: ICaL IC50, guinea pig SAN cells, PT ref Capel et al. (2015)): 22 µM
- IC50 (hKv7.1+hMinK): > 100 µM
- effect on plateau IKs level (hKv7.1+hMinK): only slightly inhibited

Compound: CC(C)NCC(O)c1ccc(NS(C)(=O)=O)cc1 (stereo not shown) [Sotalol]
- Cmax [1, 24]: 14700 nM

Compound: COc1ccc([C@@H]2Sc3ccccc3N(CCN(C)C)C(=O)[C@@H]2OC(C)=O)cc1 [Diltiazem]
- Cmax [1, 24]: 122 nM

Compound: COc1ccccc1OCC(O)CN1CCN(CC(=O)Nc2c(C)cccc2C)CC1 (stereo not shown) [Ranolazine]
- Cmax [1, 24]: 1950 nM
